# pIC50: −log10 of the molar value.
# Target: Human Factor XIIa (Homo sapiens (Human), UniProt P00748)
# Test: Determination of FXIIa inhibition (fluorogenic substrate H-DPro-Phe-Arg-AFC, IC50 assay)
# Assay type: biochemical
# Details: substrate H-DPro-Phe-Arg-AFC at Km, 25° C.; class scale A-G
# Procedure: Determination of FXIIa Inhibition
# In vitro inhibition of Factor XIIa was determined using an IC50 assay based on standard literature methods (see e.g Baeriswyl et al., ACS Chem. Biol., 2015, 10 (8) 1861; Bouckaert et al., European Journal of Medicinal Chemistry 110 (2016) 181). Human Factor XIIa (Enzyme Research Laboratories) was incubated at 25° C. with the fluorogenic substrate H-DPro-Phe-Arg-AFC (Peptide Protein Science) and various concentrations of the test compound. Protease activity was measured by monitoring the accumulation of liberated fluorescence from the substrate over 5 min at 25° C. The linear rate of fluorescence increase per minute was expressed as percentage (%) activity. The Km for the cleavage of the substrate by FXIIa was determined by standard transformation of the Michaelis-Menten equation. The compound inhibitor assays were performed at substrate Km concentration. IC50 values were calculated as the concentration of inhibitor giving 50% inhibition (IC50) of the uninhibited enzyme activity (100%).
# Chain of Human Factor XIIa (P00748 373-615): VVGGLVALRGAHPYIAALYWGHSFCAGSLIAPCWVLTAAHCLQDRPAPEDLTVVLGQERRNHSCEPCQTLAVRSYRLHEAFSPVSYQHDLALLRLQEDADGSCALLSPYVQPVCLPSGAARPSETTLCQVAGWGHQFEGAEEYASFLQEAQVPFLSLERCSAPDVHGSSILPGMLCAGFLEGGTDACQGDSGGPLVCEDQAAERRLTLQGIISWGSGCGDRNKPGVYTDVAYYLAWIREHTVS
row,SMILES,pIC50
1,"Cc1cc2c(NCc3cnc(N4CCn5c(nnc5C(F)(F)F)C4)cc3C)cncc2[nH]1 [Example 1341, 2-methyl-N-((4-methyl-6-(3-(trifluoromethyl)-5,6-dihydro-[1,2,4]triazolo[4,3-a]pyrazin-7(8H)-yl)pyridin-3-yl)methyl)-1H-pyrrolo[2,3-c]pyridin-4-amine]",5.52 to 6.00
2,"Cc1cc(N2CCn3c(nnc3C(F)(F)F)C2)ncc1CNc1ccc2nccn2c1 [Example 1322, N-((4-methyl-6-(3-(trifluoromethyl)-5,6-dihydro-[1,2,4]triazolo[4,3-a]pyrazin-7(8H)-yl)pyridin-3-yl)methyl)imidazo[1,2-a]pyridin-6-amine]",4.40 to 5.00
3,"Nc1nccc2c(NCc3ccc(N4CCn5c(nnc5C(F)(F)F)C4)nc3)nccc12 [Example 1318, N1-((6-(3-(trifluoromethyl)-5,6-dihydro-[1,2,4]triazolo[4,3-a]pyrazin-7(8H)-yl)pyridin-3-yl)methyl)-2,6-naphthyridine-1,5-diamine]",4.40 to 5.00
4,"CN1CCC(Cn2cc(CNc3ccc4c(N)nccc4c3)cn2)CC1 [Example 3253, N6-((1-((1-methylpiperidin-4-yl)methyl)-1H-pyrazol-4-yl)methyl)isoquinoline-1,6-diamine]",5.52 to 6.00
5,"Nc1nccc2cc(NCc3ccnc(OCC4CCn5cc(C(F)(F)F)nc5C4)c3)ccc12 (centres unmarked) [Example 4266, 6-N-[(2-{[2-(trifluoromethyl)-5H,6H,7H,8H-imidazo[1,2-a]pyridin-7-yl]methoxy}pyridin-4-yl)methyl]isoquinoline-1,6-diamine]",5.52 to 6.00
6,"Cn1ccnc1CCCOc1cc(CNc2ccc3c(N)nccc3c2)ccn1 [Example 4420, 6-N-({2-[3-(1-methylimidazol-2-yl)propoxy]pyridin-4-yl}methyl)isoquinoline-1,6-diamine]",5.52 to 6.00
7,"CN(Cc1ccc(N2CCn3c(nnc3C(F)(F)F)C2)nc1)c1cccc2c(N)nccc12 [Example 1332, N5-methyl-N5-((6-(3-(trifluoromethyl)-5,6-dihydro-[1,2,4]triazolo[4,3-a]pyrazin-7(8H)-yl)pyridin-3-yl)methyl)isoquinoline-1,5-diamine]",5.00 to 5.52
8,"CN1CCC(C)(COc2cc(CNc3ccc4c(N)nccc4c3)ccn2)CC1 [Example 4425, 6-N-({2-[(1,4-dimethylpiperidin-4-yl)methoxy]pyridin-4-yl}methyl)isoquinoline-1,6-diamine]",6.00 to 6.52
9,"Cc1cc(N2CCn3c(nnc3C(F)(F)F)C2C)cnc1CNc1cccc2c(N)nccc12 (single isomer, unassigned) [Example 1346, (S*)-N5-((3-methyl-5-(8-methyl-3-(trifluoromethyl)-5,6-dihydro-[1,2,4]triazolo[4,3-a]pyrazin-7(8H)-yl)pyridin-2-yl)methyl)isoquinoline-1,5-diamine]",5.52 to 6.00
10,"CN1CCC(CCn2cc(CNc3cccc4c(N)nccc34)cn2)CC1 [Example 3255, N5-((1-(2-(1-methylpiperidin-4-yl)ethyl)-1H-pyrazol-4-yl)methyl)isoquinoline-1,5-diamine]",6.00 to 6.52
11,"CN1CCN(C(=O)Cc2ccc(CNc3ccc4c(N)nccc4c3)cc2)CC1 [Example 2179, 2-(4-{[(1-aminoisoquinolin-6-yl)amino]methyl}phenyl)-1-(4-methylpiperazin-1-yl)ethanone]",5.52 to 6.00
12,"Nc1nccc2c(NCc3ccnc(N4CCn5c(nnc5C(F)(F)F)C4)c3)cccc12 [Example 4472, N5-((2-(3-(trifluoromethyl)-5,6-dihydro-[1,2,4]triazolo[4,3-a]pyrazin-7(8H)-yl)pyridin-4-yl)methyl)isoquinoline-1,5-diamine]",5.52 to 6.00
13,"Cn1ccnc1COc1cc(CNc2ccc3c(N)nccc3c2)ccn1 [Example 4422, 6-N-({2-[(1-methylimidazol-2-yl)methoxy]pyridin-4-yl}methyl)isoquinoline-1,6-diamine]",5.00 to 5.52
14,"CN1CCC(OCc2ccc(CNc3ccc4c(N)nccc4c3)c(F)c2)CC12COC2 (centres unmarked) [Example 2205, 6-N-({2-fluoro-4-[({5-methyl-2-oxa-5-azaspiro[3.5]nonan-8-yl}oxy)methyl]phenyl}methyl)isoquinoline-1,6-diamine]",5.52 to 6.00
15,"CN1CCC(COc2cc(CNc3ccc4c(N)nccc4c3)ccn2)CC1=O (centres unmarked) [Example 4416, 4-{[(4-{[(1-aminoisoquinolin-6-yl)amino]methyl}pyridin-2-yl)oxy]methyl}-1-methylpiperidin-2-one]",6.00 to 6.52
16,"Cc1nnc2n1CCC(COc1cc(CNc3ccc4c(N)nccc4c3)ccn1)C2 (centres unmarked) [Example 4413, 6-N-{[2-({3-methyl-5H,6H,7H,8H-[1,2,4]triazolo[4,3-a]pyridin-7-yl}methoxy)pyridin-4-yl]methyl}isoquinoline-1,6-diamine]",5.52 to 6.00
17,"Nc1nccc2c(NCc3cnc(N4CCn5c(nnc5C(F)(F)F)C4)c(CO)c3)cccc12 [Example 1335, (5-(((1-aminoisoquinolin-5-yl)amino)methyl)-2-(3-(trifluoromethyl)-5,6-dihydro-[1,2,4]triazolo[4,3-a]pyrazin-7(8H)-yl)pyridin-3-yl)methanol]",4.40 to 5.00
18,"CN1CCC(COc2cc(CNc3cnc4[nH]cc(Cl)c4c3)ccn2)CC1 [Example 4264, 3-chloro-N-((2-((1-methylpiperidin-4-yl)methoxy)pyridin-4-yl)methyl)-1H-pyrrolo[2,3-b]pyridin-5-amine]",4.40 to 5.00
19,"CN1CCC(CCOc2ccc(CNc3ccc4c(N)nccc4c3)cn2)CC1 [Example 1032, 6-N-({6-[2-(1-methylpiperidin-4-yl)ethoxy]pyridin-3-yl}methyl)isoquinoline-1,6-diamine]",6.00 to 6.52
20,"CN1CCC(COc2ccc(CCc3cccc4c(N)nccc34)cn2)CC1 [Example 1019, 5-(2-{6-[(1-methylpiperidin-4-yl)methoxy]pyridin-3-yl}ethyl)isoquinolin-1-amine]",5.00 to 5.52

# The next lines start with the values.
row,pIC50,SMILES
1,6.52 to 7.00,"CN1CCC(C)(COc2cc(CNc3cccc4c(N)nccc34)ccn2)CC1 [Example 4424, N5-((2-((1,4-dimethylpiperidin-4-yl)methoxy)pyridin-4-yl)methyl)isoquinoline-1,5-diamine]"
2,6.52 to 7.00,"CCC1c2nnc(C(F)(F)F)n2CCN1c1cc(C)c(CNc2cccc3c(N)nccc23)cn1 (single isomer, unassigned) [Example 1321, (S*)-N5-((6-(8-ethyl-3-(trifluoromethyl)-5,6-dihydro-[1,2,4]triazolo[4,3-a]pyrazin-7(8H)-yl)-4-methylpyridin-3-yl)methyl)isoquinoline-1,5-diamine]"
3,7.00 to 8.00,"COCC1c2nnc(C(F)(F)F)n2CCN1c1cc(C)c(CNc2cccc3c(N)nccc23)cn1 (centres unmarked) [Example 1319, N5-((6-(8-(methoxymethyl)-3-(trifluoromethyl)-5,6-dihydro-[1,2,4]triazolo[4,3-a]pyrazin-7(8H)-yl)-4-methylpyridin-3-yl)methyl)isoquinoline-1,5-diamine]"
4,6.52 to 7.00,"Nc1nccc2cc(NCc3ccnc(OCC4CCn5ccnc5C4)c3)ccc12 (centres unmarked) [Example 4408, N6-((2-((5,6,7,8-tetrahydroimidazo[1,2-a]pyridin-7-yl)methoxy)pyridin-4-yl)methyl)isoquinoline-1,6-diamine]"
5,7.00 to 8.00,"Cc1cc(N2CCn3c(nnc3C(F)(F)F)C2C)ncc1CNc1ccnc2[nH]c(Cl)cc12 (racemic) [Example 1314, 2-Chloro-N-((4-methyl-6-(8-methyl-3-(trifluoromethyl)-5,6-dihydro-[1,2,4]triazolo[4,3-a]pyrazin-7(8H)-yl)pyridin-3-yl)methyl)-1H-pyrrolo[2,3-b]pyridin-4-amine]"
6,6.00 to 6.52,"Cn1ccnc1CCCOc1cc(CNc2cccc3c(N)nccc23)ccn1 [Example 4421, 5-N-({2-[3-(1-methylimidazol-2-yl)propoxy]pyridin-4-yl}methyl)isoquinoline-1,5-diamine]"
7,6.52 to 7.00,"CC(Oc1cc(CNc2ccc3c(N)nccc3c2)ccn1)C1CCN(C)CC1 (centres unmarked) [Example 4414, 6-N-({2-[1-(1-methylpiperidin-4-yl)ethoxy]pyridin-4-yl}methyl)isoquinoline-1,6-diamine]"
8,7.00 to 8.00,"Cc1cc(N2Cc3nnc(C(F)(F)F)n3C[C@H]2C)ncc1CNc1cccc2c(N)nccc12 [Example 1342, (R)-N5-((4-methyl-6-(6-methyl-3-(trifluoromethyl)-5,6-dihydro-[1,2,4]triazolo[4,3-a]pyrazin-7(8H)-yl)pyridin-3-yl)methyl)isoquinoline-1,5-diamine]"
9,6.52 to 7.00,"Cc1cc(N2CCn3c(nnc3C(F)(F)F)C2)ncc1CNc1ccc2c(N)nccc2c1 [Example 1333, N6-((4-methyl-6-(3-(trifluoromethyl)-5,6-dihydro-[1,2,4]triazolo[4,3-a]pyrazin-7(8H)-yl)pyridin-3-yl)methyl)isoquinoline-1,6-diamine]"
10,6.52 to 7.00,"Nc1nccc2cc(NCc3ccc(OC[C@H]4CCn5ccnc5C4)nc3)ccc12 (single isomer, unassigned) [Example 1024, 6-N-({6-[(7S*)-5H,6H,7H,8H-imidazo[1,2-a]pyridin-4-yl}-ylmethyl)isoquinoline-1,6-diamine]"
11,6.52 to 7.00,"Cc1cc(N2CCn3c(nnc3C(F)(F)F)C2)ccc1CNc1cccc2c(N)nccc12 [Example 2257, N5-(2-methyl-4-(3-(trifluoromethyl)-5,6-dihydro-[1,2,4]triazolo[4,3-a]pyrazin-7(8H)-yl)benzyl)isoquinoline-1,5-diamine]"
12,6.52 to 7.00,"Nc1nccc2cc(NCc3ccnc(OC[C@@H]4CCn5ccnc5C4)c3)ccc12 (single isomer, unassigned) [Example 4412, 6-N-({2-[(7R*)-5H,6H,7H,8H-imidazo[1,2-a]pyridin-7-ylmethoxy]pyridin-4-yl}methyl)isoquinoline-1,6-diamine]"

# — patent publication US20240059691A1 (KALVISTA PHARMACEUTICALS LIMITED, priority 2020, published 2024)
